Results from patent US20070232698A1, “Slimming Skin External Preparation and Cosmetic Containing the Same” (priority 2004, published 2007).

Legend:
[1] = test system: Mouse 3T3 adipocytes; test: Measurement of fat metabolic activity for mouse 3T3 adipocytes (free glycerol in culture medium); type: cell-based; details: 250 μM test substance, medium recovered after 24 hours; control (none) = 100
Protocol: The five carnitine and carnitine derivatives 1) to 5) used in Example 1 were tested. The fat metabolic activity was measured and compared by quantitative determination of glycerol in the culture medium based on the fact that metabolism of the fat accumulated in adipocytes releases glycerol and free fatty acid to the culture medium.
Mouse 3T3 cells as the preadipocytes were disseminated on a 10 cm-diameter dish such that 1×10^4 cells were on the dish. […] Thereafter, the culture medium was replaced with a 10% FCS-containing DMEM culture medium that contained […] of dexamethasone, 0.5 mM of isobutylmethylxanthine and 10 μg/ml of insulin, and incubation was continued for another 2 days. Subsequently, the culture medium was replaced again with a 10% FCS-containing ordinary DMEM culture medium, and incubation was performed for another week, resulting in differentiation of the preadipocytes into adipocytes. Next, the culture medium was replaced with an ordinary culture medium that contained 250 μM of the carnitine or carnitine derivative of the five substances 1) to 5) used in Example 1, and the culture medium was recovered after 24 hours. The cells were washed with Dulbecco's PBS (−) and were recovered. Cells incubated in the absence of the test substances were used as the control. The glycerol content in the culture medium was quantitatively determined using Glycerol Test E Wako (Wako Pure Chemical Industries, Ltd.).
The fat metabolic activity for mouse 3T3 adipocytes was determined based on the free glycerol content in the same manner as in Example 2, except that the two carnitine and carnitine derivative 1) and 6) used in Example 4 were tested.
The fat metabolic activity for mouse 3T3 adipocytes was determined based on the free glycerol content in the same manner as in Example 2, except that the three carnitine and carnitine derivatives 1), 7) and 8) used in Example 7 were tested.

[2] = test system: skin together with subcutaneous fat tissues; test: Subcutaneous fat breakdown test (rat abdominal skin with subcutaneous fat in Franz diffusion cell); details: lower cell PBS (−), 37° C., average of three measurements, control (none) 20
Protocol: A male Wister rat, 10 weeks old, was shaved on the abdomen, and the skin was removed together with subcutaneous fat tissues and was placed in a Franz diffusion cell. An upper cell on the skin surface was filled with a buffer solution containing the Example 1 test substance, and a lower cell was filled with Dulbecco's PBS (−). The diffusion cell was held at 37° C. and was allowed to stand for 8 or 16 hours. After the lapse of each of the standing times, PBS (−) was withdrawn from the lower cell. The content of free glycerol resulting from the fat breakdown was measured with use of Glycerol Test E Wako. The results are averages of three measurements.
The free glycerol contents were measured in the same manner as in Example 3, except that the two carnitine and carnitine derivative 1) and 6) used in Example 4 were tested. The results are averages of three measurements.
The free glycerol contents were measured in the same manner as in Example 3, except that the three carnitine and carnitine derivatives 1), 7) and 8) used in Example 7 were tested. The results are averages of three measurements.

[3] = test system: human skin tissue three dimensional model (TESTSKIN LSD-d)
Protocol: The test substances were each dissolved in Dulbecco's PBS (−) to give a 1% by mass solution of the test substance. The test substance solutions were placed, each 50 μL, to a tissue surface of human skin tissue three dimensional model (TESTSKIN™ LSD-d, available from TOYOBO CO., LTD.), and were incubated at 37° C. in a 5% CO2 atmosphere for 2 hours. Thereafter the test substance solutions were aspirated out, and the skin models were further incubated at 37° C. in a 5% CO2 atmosphere for 2, 6 or 12 hours. The skin models were sampled after the lapse of each of the incubation times. The skin models sampled at the incubation times were washed with Dulbecco's PBS (−), and the tissue surfaces on which the test substances had been placed were punched out with a punch 6 mm in diameter. The skin models were then homogenated in a HEPES buffer solution (pH: 7.2), and were quantitatively analyzed using a high performance liquid chromatography to determine the carnitine content in the skin model.
From the analysis results, the carnitine contents in the skin models (unit: nmol/mg skin protein) were obtained for the test substances at each of the incubation times.

Compound | Free glycerol content (% relative to the control) [1] | Free glycerol, After 8 hours [2] [µmol/mL] | Free glycerol, After 16 hours [2] [µmol/mL] | carnitine content in the skin model, After 2-hour incubation [3] [nmol/mg skin protein] | carnitine content in the skin model, After 6-hour incubation [3] [nmol/mg skin protein] | carnitine content in the skin model, After 12-hour incubation [3] [nmol/mg skin protein]
CCCCCCCCCCCCCC(=O)O[C@H](CC(=O)O)C[N+](C)(C)C.[Cl-] [Test substance 3), Tetradecanoyl-L-carnitine hydrochloride] | 168 % relative to the control | 112 | 146 | 6 | 12 | 22
CCCCCCCCCCCCCCCCCC(=O)O[C@H](CC(=O)O)C[N+](C)(C)C.[Cl-] [Test substance 5), Octadecanoyl-L-carnitine hydrochloride] | 176 % relative to the control | 117 | 158 | 5 | 10 | 25
